Source: patent US20240294508A1, “RIP1 MODULATORS INCLUDING AZETIDINE CYCLIC UREAS, PREPARATIONS, AND USES THEREOF” (SIRONAX LTD., priority 2021, published 2024)

Tested on: HT-29 cells
Test: HT29 cells 0FBS assay in vitro: TNF-α/SMAC mimetic/zVAD-FMK induced necroptosis, CellTiter-Glo cell viability (RIP1 inhibitory activity)
Format: cell-based
Details: Homo sapiens, FBS free medium, TNF-α (10 ng/ml) + SMAC mimetic (6 uM) + zVAD-FMK (10 μM), 20 hours, geometric mean EC50
In short: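 HT-29 cells (5,000/well, overnight) switched to FBS-free McCOY's 5A with TNF-α (10 ng/ml), SMAC mimetic (6 uM) and zVAD-FMK (10 μM) to drive necroptosis, plus compound, for 20 hours at 37° C. Viability read by CellTiter-Glo luminescence; geometric mean EC50 from 10-point duplicate dose-response.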

SMILES | EC50
Cc1cc(F)cc([C@H]2CC=NN2C(=O)N2CC(Oc3cc(-n4nc(C)c(C(=O)O)c4C)ncc3F)C2)c1 [Compound 143, (R) 1-(5-fluoro-4-((1-(5-(3-fluoro-5-methylphenyl)-4,5-dihydro-1H-pyrazole-1-carbonyl)azetidin-3-yl)oxy)pyridin-2-yl)-3,5-dimethyl-1H-pyrazole-4-carboxylic acid] | 100 to 1000 nM
Cn1ncc(Cl)c1-c1ncc(F)c(OC2CN(C(=O)N3N=CC[C@H]3c3cc(F)cc(C#N)c3)C2)n1 [Compound 16] | 0.1 to 100 nM
Cn1ncc(C#N)c1-c1cc(OC2CN(C(=O)N3N=CC[C@H]3c3cncc(F)c3)C2)c(F)cn1 [Compound 26, (S)-5-(5-fluoro-4-((1-(5-(5-fluoropyridin-3-yl)-4,5-dihydro-1H-pyrazole-1-carbonyl)azetidin-3-yl)oxy)pyridin-2-yl)-1-methyl-1H-pyrazole-4-carbonitrile] | 0.1 to 100 nM
Cc1nn(-c2cc(OC3CN(C(=O)N4N=CC[C@H]4c4cccc(F)c4)C3)c(F)cn2)c(C)c1S(N)(=O)=O [Compound 114, (S)-1-(5-fluoro-4-((1-(5-(3-fluorophenyl)-4,5-dihydro-1H-pyrazole-1-carbonyl)azetidin-3-yl)oxy)pyridin-2-yl)-3,5-dimethyl-1H-pyrazole-4-sulfonamide] | 0.1 to 100 nM
Cc1nn(-c2cc(OC3CN(C(=O)N4N=CC[C@H]4c4ccccc4)C3)c(F)cn2)c(C)c1S(N)(=O)=O [Compound 113, (S)-1-(5-fluoro-4-((1-(5-phenyl-4,5-dihydro-1H-pyrazole-1-carbonyl)azetidin-3-yl)oxy)pyridin-2-yl)-3,5-dimethyl-1H-pyrazole-4-sulfonamide] | 0.1 to 100 nM
Cc1cnn(C)c1-c1nc(OC2CN(C(=O)N3N=CCC3c3cc(F)cc(F)c3)C2)c(F)cc1F (stereo not drawn) [Compound 158, (5-(3,5-difluorophenyl)-4,5-dihydro-1H-pyrazol-1-yl)(3-((6-(1,4-dimethyl-1H-pyrazol-5-yl)-3,5-difluoropyridin-2-yl)oxy)azetidin-1-yl)methanone] | 0.1 to 100 nM
Cc1nscc1-c1cc(OC2CN(C(=O)N3N=CC[C@H]3c3cc(F)cc(C#N)c3)C2)c(F)cn1 [Compound 17, (S)-3-fluoro-5-(1-(3-((5-fluoro-2-(3-methylisothiazol-4-yl)pyridin-4-yl)oxy)azetidine-1-carbonyl)-4,5-dihydro-1H-pyrazol-5-yl)benzonitrile] | 0.1 to 100 nM
Cc1cnn(C)c1-c1ccc(F)c(OC2CN(C(=O)N3N=CC[C@H]3c3cncc(C#N)c3)C2)n1 [Compound 55, (S)-5-(1-(3-((6-(1,4-dimethyl-1H-pyrazol-5-yl)-3-fluoropyridin-2-yl)oxy)azetidine-1-carbonyl)-4,5-dihydro-1H-pyrazol-5-yl)nicotinonitrile] | 0.1 to 100 nM
Cc1cc(F)cc([C@H]2CC=NN2C(=O)N2CC(Oc3cc(-n4nc(C)c(C(N)=O)c4C)ncc3F)C2)c1 [Compound 136, (R)-1-(5-fluoro-4-((1-(5-(3-fluoro-5-methylphenyl)-4,5-dihydro-1H-pyrazole-1-carbonyl)azetidin-3-yl)oxy)pyridin-2-yl)-3,5-dimethyl-1H-pyrazole-4-carboxamide] | 100 to 1000 nM
Cc1cnn(C)c1-c1cc(OC2CN(C(=O)N3N=CC[C@H]3c3cncc(F)c3)C2)c(F)cn1 [Compound 30, (S)-(3-((2-(1,4-dimethyl-1H-pyrazol-5-yl)-5-fluoropyridin-4-yl)oxy)azetidin-1-yl)(5-(5-fluoropyridin-3-yl)-4,5-dihydro-1H-pyrazol-1-yl)methanone] | 0.1 to 100 nM
Cc1nn(-c2cc(OC3CN(C(=O)N4N=CC[C@H]4c4ccccc4)C3)c(F)cn2)c(C)c1C(=O)NC1COC1 [Compound 76, (S)-1-(5-fluoro-4-((1-(5-phenyl-4,5-dihydro-1H-pyrazole-1-carbonyl)azetidin-3-yl)oxy)pyridin-2-yl)-3,5-dimethyl-N-(oxetan-3-yl)-1H-pyrazole-4-carboxamide] | 0.1 to 100 nM
Cc1nc(C2CC=NN2C(=O)N2CC(Oc3cc(-c4c(C)cnn4C)ncc3F)C2)c(C)s1 (stereo not drawn) [Compound 128, (3-((2-(1,4-dimethyl-1H-pyrazol-5-yl)-5-fluoropyridin-4-yl)oxy)azetidin-1-yl)(5-(2,5-dimethylthiazol-4-yl)-4,5-dihydro-1H-pyrazol-1-yl)methanone] | 100 to 1000 nM
COc1ncccc1-c1cc(OC2CN(C(=O)N3N=CC[C@H]3c3cc(F)cc(F)c3)C2)c(F)cn1 [Compound 164, (S)-(5-(3,5-difluorophenyl)-4,5-dihydro-1H-pyrazol-1-yl)(3-((5-fluoro-2′-methoxy-[2,3′-bipyridin]-4-yl)oxy)azetidin-1-yl)methanone] | 0.1 to 100 nM
Cc1ncc(C2CC=NN2C(=O)N2CC(Oc3nc(-c4c(C)cnn4C)ncc3F)C2)s1 (stereo not drawn) [Compound 109, (3-((2-(1,4-dimethyl-1H-pyrazol-5-yl)-5-fluoropyrimidin-4-yl)oxy)azetidin-1-yl)(5-(2-methylthiazol-5-yl)-4,5-dihydro-1H-pyrazol-1-yl)methanone] | 0.1 to 100 nM
Cc1cnn(C)c1-c1cnc(OC2CN(C(=O)N3N=CC[C@H]3c3cc(F)cc(F)c3)C2)s1 [Compound 154, (S)-(5-(3,5-difluorophenyl)-4,5-dihydro-1H-pyrazol-1-yl)(3-((5-(1,4-dimethyl-1H-pyrazol-5-yl)thiazol-2-yl)oxy)azetidin-1-yl)methanone] | 0.1 to 100 nM
Cc1cnn(C)c1-c1ncc(F)c(OC2CN(C(=O)N3N=CC[C@H]3c3cncc(C#N)c3)C2)n1 [Compound 33, (S)-5-(1-(3-((2-(1,4-dimethyl-1H-pyrazol-5-yl)-5-fluoropyrimidin-4-yl)oxy)azetidine-1-carbonyl)-4,5-dihydro-1H-pyrazol-5-yl)nicotinonitrile] | 0.1 to 100 nM
Cc1nn(-c2cc(OC3CN(C(=O)N4N=CC[C@@H]4c4cc(F)cc(Cl)c4)C3)c(F)cn2)c(C)c1C(=O)O [Compound 141, (R)-1-(4-((1-(5-(3-chloro-5-fluorophenyl)-4,5-dihydro-1H-pyrazole-1-carbonyl)azetidin-3-yl)oxy)-5-fluoropyridin-2-yl)-3,5-dimethyl-1H-pyrazole-4-carboxylic acid] | 100 to 1000 nM
Cc1nc([C@@H]2CC=NN2C(=O)N2CC(Oc3cc(-c4c(C)cnn4C)ncc3F)C2)cs1 [Compound 120, (S)-(3-((2-(1,4-dimethyl-1H-pyrazol-5-yl)-5-fluoropyridin-4-yl)oxy)azetidin-1-yl)(5-(2-methylthiazol-4-yl)-4,5-dihydro-1H-pyrazol-1-yl)methanone] | 0.1 to 100 nM
Cc1cc(F)cc([C@@H]2CC=NN2C(=O)N2CC(Oc3cc(-n4nc(C)c(C(=O)O)c4C)ncc3F)C2)c1 [Compound 142, (S)-1-(5-fluoro-4-((1-(5-(3-fluoro-5-methylphenyl)-4,5-dihydro-1H-pyrazole-1-carbonyl)azetidin-3-yl)oxy)pyridin-2-yl)-3,5-dimethyl-1H-pyrazole-4-carboxylic acid] | 0.1 to 100 nM
Cc1csc(C2CC=NN2C(=O)N2CC(Oc3cc(-c4c(C)cnn4C)ncc3F)C2)n1 (stereo not drawn) [Compound 97, (3-((2-(1,4-dimethyl-1H-pyrazol-5-yl)-5-fluoropyridin-4-yl)oxy)azetidin-1-yl)(5-(4-methylthiazol-2-yl)-4,5-dihydro-1H-pyrazol-1-yl)methanone] | 100 to 1000 nM
Cc1nsc(C)c1-c1cc(OC2CN(C(=O)N3N=CC[C@H]3c3cc(F)cc(C#N)c3)C2)c(F)cn1 [Compound 31, (S)-3-(1-(3-((2-(3,5-dimethylisothiazol-4-yl)-5-fluoropyridin-4-yl)oxy)azetidine-1-carbonyl)-4,5-dihydro-1H-pyrazol-5-yl)-5-fluorobenzonitrile] | 0.1 to 100 nM
Cc1nc(C)c(C2CC=NN2C(=O)N2CC(Oc3cc(-c4c(C)cnn4C)ncc3F)C2)s1 (stereo not drawn) [Compound 119, (3-((2-(1,4-dimethyl-1H-pyrazol-5-yl)-5-fluoropyridin-4-yl)oxy)azetidin-1-yl)(5-(2,4-dimethylthiazol-5-yl)-4,5-dihydro-1H-pyrazol-1-yl)methanone] | 100 to 1000 nM
Cn1cc(-c2cc(OC3CN(C(=O)N4N=CC[C@H]4c4cc(F)cc(C#N)c4)C3)c(F)cn2)nn1 [Compound 14, (S)-3-fluoro-5-(1-(3-((5-fluoro-2-(1-methyl-1H-1,2,3-triazol-4-yl)pyridin-4-yl)oxy)azetidine-1-carbonyl)-4,5-dihydro-1H-pyrazol-5-yl)benzonitrile] | 100 to 1000 nM
CNC(=O)c1c(C)nn(-c2cc(OC3CN(C(=O)N4N=CC[C@H]4c4cc(F)cc(C#N)c4)C3)c(F)cn2)c1C [Compound 80, (S)-1-(4-((1-(5-(3-cyano-5-fluorophenyl)-4,5-dihydro-1H-pyrazole-1-carbonyl)azetidin-3-yl)oxy)-5-fluoropyridin-2-yl)-N,3,5-trimethyl-1H-pyrazole-4-carboxamide] | 0.1 to 100 nM
Cc1nn(-c2cc(OC3CN(C(=O)N4N=CC[C@H]4c4cc(F)cc(C#N)c4)C3)c(F)cn2)c(C)c1C(N)=O [Compound 70, (S)-1-(4-((1-(5-(3-cyano-5-fluorophenyl)-4,5-dihydro-1H-pyrazole-1-carbonyl)azetidin-3-yl)oxy)-5-fluoropyridin-2-yl)-3,5-dimethyl-1H-pyrazole-4-carboxamide] | 0.1 to 100 nM
Cc1nn(-c2cc(OC3CN(C(=O)N4N=CC[C@H]4c4cncc(F)c4)C3)c(F)cn2)c(C)c1C(N)=O [Compound 63, (S)-1-(5-fluoro-4-((1-(5-(5-fluoropyridin-3-yl)-4,5-dihydro-1H-pyrazole-1-carbonyl)azetidin-3-yl)oxy)pyridin-2-yl)-3,5-dimethyl-1H-pyrazole-4-carboxamide] | 100 to 1000 nM
Cc1cnn(C)c1-c1ncc(F)c(OC2CN(C(=O)N3N=CC[C@H]3c3cncc(F)c3)C2)n1 [Compound 24, (S)-(3-((2-(1,4-dimethyl-1H-pyrazol-5-yl)-5-fluoropyrimidin-4-yl)oxy)azetidin-1-yl)(5-(5-fluoropyridin-3-yl)-4,5-dihydro-1H-pyrazol-1-yl)methanone] | 0.1 to 100 nM
